“Also recorded” adds a separate entry of the source. Where two headings read alike, the source gives them in different places.
Columns and labels:
[1] = molecular target: T1, parathyroid cell calcium receptor (Bos taurus, UniProt P35384); assay: cell-based; format: cell-based
T1 sequence (P35384 20-1085): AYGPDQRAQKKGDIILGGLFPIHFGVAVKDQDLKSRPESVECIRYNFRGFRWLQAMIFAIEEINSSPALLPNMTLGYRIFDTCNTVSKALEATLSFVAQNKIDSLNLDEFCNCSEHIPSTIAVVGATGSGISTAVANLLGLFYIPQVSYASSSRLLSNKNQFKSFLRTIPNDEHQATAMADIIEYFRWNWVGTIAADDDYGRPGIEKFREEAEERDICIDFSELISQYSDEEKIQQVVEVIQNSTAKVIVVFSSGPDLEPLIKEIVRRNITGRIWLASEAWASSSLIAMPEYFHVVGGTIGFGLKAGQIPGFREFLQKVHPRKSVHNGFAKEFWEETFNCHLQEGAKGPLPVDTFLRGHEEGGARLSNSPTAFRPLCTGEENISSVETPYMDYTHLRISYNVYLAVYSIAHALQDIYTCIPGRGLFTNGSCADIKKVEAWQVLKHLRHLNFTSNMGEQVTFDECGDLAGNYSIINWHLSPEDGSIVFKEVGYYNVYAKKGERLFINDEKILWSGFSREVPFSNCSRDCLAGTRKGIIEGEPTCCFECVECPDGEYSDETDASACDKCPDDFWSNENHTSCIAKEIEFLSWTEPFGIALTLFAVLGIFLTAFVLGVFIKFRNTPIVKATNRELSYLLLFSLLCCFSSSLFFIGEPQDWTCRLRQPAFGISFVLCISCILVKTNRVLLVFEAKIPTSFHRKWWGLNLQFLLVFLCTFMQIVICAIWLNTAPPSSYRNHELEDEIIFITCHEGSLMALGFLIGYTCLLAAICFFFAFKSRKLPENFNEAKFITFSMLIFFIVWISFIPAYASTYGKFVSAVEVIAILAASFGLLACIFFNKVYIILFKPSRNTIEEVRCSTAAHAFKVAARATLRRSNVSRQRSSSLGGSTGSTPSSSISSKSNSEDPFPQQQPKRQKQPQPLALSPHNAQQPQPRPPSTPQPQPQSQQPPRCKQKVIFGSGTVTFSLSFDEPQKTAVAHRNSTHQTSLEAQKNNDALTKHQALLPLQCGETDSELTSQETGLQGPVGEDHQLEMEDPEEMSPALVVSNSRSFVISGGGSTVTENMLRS
Protocol: For example,. bovine parathyroid cells loaded with fura-2 are initially suspended in buffer containing 0.5 mM CaCl2. A test substance is added to the cuvette in a small volume (5-15 μl) and changes in the fluorescence signal are measured. Cumulative increases in the concentration of the test substance are made in the cuvette until some predetermined concentration is achieved or no further changes in fluorescence are noted.
Human parathyroid glands, were obtained from patients undergoing surgical removal of parathyroid tissue for primary or uremic hyperparathyroidism (uremic HPT), and were treated similarly to bovine tissue.
The cells were then pelleted, resuspended in the same buffer, but lacking the ester, and incubated a further 15 minutes at 37° C. The cells were subsequently washed twice with PCB containing 0.5 mM CaCl2 and 0.5% BSA and maintained at room temperature (about 20° C.). Immediately before use, the cells were diluted five-fold with prewarmed 0.5 mM CaCl2 -PCB to obtain a final BSA concentration of 0.1%. The concentration of cells in the cuvette used for fluorescence recording was 1-2×10^6 /ml.
The fluorescence of indicator-loaded cells was measured at 37° C. in a spectrofluorimeter (Biomedical Instrumentation Group, University of Pennsylvania, Philadelphia, Pa.) equipped with a thermostated cuvette holder and magnetic stirrer using excitation and emission wavelengths of 340 and 510 nm, respectively. […] Leakage of dye is dependent on temperature and most occurs within the first 2 minutes after warming the cells in the cuvette. Dye leakage increases only very slowly thereafter. To correct the calibration for dye leakage, cells were placed in the cuvette and stirred at 37° C. for 2-3 minutes. The cell suspension was then removed, the cells pelleted, and the supernatant returned to a clean cuvette. […] This estimate was subtracted from the apparent Fmin.

[2] = molecular target: T1, parathyroid cell calcium receptor; assay: Cl- current in Xenopus oocytes injected with bovine parathyroid cell mRNA; format: cell-based; set-up: Whole pieces of gland were used to prepare mRNA that directs the expression of the calcium receptor in Xenopus oocytes; expressed in transfected cells; host or cells: Xenopus laevis oocytes injected with parathyroid poly(A)+ mRNA; conditions: oocytes expressing parathyroid calcium receptor; fendiline 100 μM
Protocol: Following incubation, an oocyte was placed into a 100-μl plastic chamber and superfused with MBS at a flow rate of 0.5 ml/min using a peristaltic pump. Test molecules or inorganic polycations were added by rapidly moving the tubing into different buffers. Recording and current-passing electrodes were constructed from thin-wall capillary tubing pulled to a resistance of 1-3 Mohms and filled with 3 M KCl. […] Currents were recorded directly onto a strip chart recorder.

PTH = PTH levels in rats; format: in vivo, rat; conditions: NPS R-568 oral, rats
Description: The fall in blood Ca^2+ at this time was paralleled by a proportional fall in the levels of blood total calcium.

[3] = molecular target: T2, human parathyroid cell calcium receptor (Homo sapiens, UniProt P41180); assay: Cl- current in Xenopus oocytes expressing human parathyroid cell calcium receptor; format: cell-based; conditions: for effect on Cl- current: 3 to 30 μM, 0.3 mM extracellular Ca2+
T2 construct: T7 cRNA injected into Xenopus oocytes
T2 sequence (P41180 with tags, fused parts or gaps INS536PLTFVLSVLQ/Q926R/E1011Q): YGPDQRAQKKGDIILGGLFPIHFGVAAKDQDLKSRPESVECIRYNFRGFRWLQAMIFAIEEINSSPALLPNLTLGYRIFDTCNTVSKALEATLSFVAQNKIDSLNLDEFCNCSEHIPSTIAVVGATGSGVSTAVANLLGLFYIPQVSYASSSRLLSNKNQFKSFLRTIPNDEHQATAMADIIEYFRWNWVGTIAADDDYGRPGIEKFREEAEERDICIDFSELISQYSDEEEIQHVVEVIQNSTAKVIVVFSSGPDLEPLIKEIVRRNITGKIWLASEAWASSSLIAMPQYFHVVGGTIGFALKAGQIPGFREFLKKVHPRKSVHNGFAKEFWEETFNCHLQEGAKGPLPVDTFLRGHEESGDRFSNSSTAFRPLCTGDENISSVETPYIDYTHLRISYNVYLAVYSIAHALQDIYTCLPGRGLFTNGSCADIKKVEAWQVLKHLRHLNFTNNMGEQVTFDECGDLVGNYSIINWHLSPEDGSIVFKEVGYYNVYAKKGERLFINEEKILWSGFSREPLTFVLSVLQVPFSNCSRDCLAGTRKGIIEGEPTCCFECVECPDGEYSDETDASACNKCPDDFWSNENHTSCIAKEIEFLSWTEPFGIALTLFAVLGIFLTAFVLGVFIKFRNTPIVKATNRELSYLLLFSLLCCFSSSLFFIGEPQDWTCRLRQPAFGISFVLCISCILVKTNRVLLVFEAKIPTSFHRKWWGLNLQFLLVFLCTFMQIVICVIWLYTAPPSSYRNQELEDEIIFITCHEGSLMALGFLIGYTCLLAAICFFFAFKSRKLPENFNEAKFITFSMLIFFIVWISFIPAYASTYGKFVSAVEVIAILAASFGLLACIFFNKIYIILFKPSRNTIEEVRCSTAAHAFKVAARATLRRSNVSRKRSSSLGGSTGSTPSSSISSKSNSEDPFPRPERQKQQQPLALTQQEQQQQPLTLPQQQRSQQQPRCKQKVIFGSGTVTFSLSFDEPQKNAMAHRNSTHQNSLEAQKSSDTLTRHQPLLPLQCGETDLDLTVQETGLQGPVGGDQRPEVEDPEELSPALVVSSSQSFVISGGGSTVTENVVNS
Protocol: Representative cDNA inserts for both size classes were subcloned into the plasmid vector pBluescript SK. Linearization followed by in vitro transcription using T7 RNA polymerase produced cRNA transcripts. The cRNA transcripts were injected into Xenopus oocytes (150 ng/μl RNA; 50 nl/oocyte) for functional analysis. Following incubation periods of 2-4 days, the oocytes were assayed for the presence of functional calcium receptors. Both clone types gave rise to functional calcium receptors as assessed by the stimulation of calcium-activated chloride currents upon addition of appropriate calcium receptor agonists. […] Thus, both clones encode a functional, human parathyroid cell calcium receptor.
Xenopus oocytes were injected with pHuPCaR 5.2, the 5.2 Kb cDNA encoding a parathyroid cell calcium receptor derived from a human parathyroid cell adenoma. (See Example 27.) After two to three days, Cl^- currents were measured in the oocytes using a two-electrode voltage clamp.

| Compound | effect on [Ca2+]i [1] | effect on [Ca2+]i ([1]; 10 μM, Ca2+-free) | effect on [Ca2+]i ([1]; 100 μM, Ca2+-free) | effect on extracellular Ca2+-evoked increases in [Ca2+]i ([1]; neomycin B 30 μM / maximally effective concentration) | effect on intracellular Ca2+ ([1]; neomycin B 30 μM, protamine 1 μg/ml) | effect on Cl- current / intracellular Ca2+ [2] | effect on PTH, oral (PTH) | activation of oocyte-expressed receptor [3] | effect on extracellular Ca2+ concentration-response curve [3] | effect on Cl- current [3] | response in absence of extracellular Ca2+ [3] | effect on response to extracellular Ca2+ [1] | effect on [Ca2+]i in absence of extracellular Ca2+ ([1]; Ca2+-free buffer) |
| --- | --- | --- | --- | --- | --- | --- | --- | --- | --- | --- | --- | --- | --- |
| NC[C@@H]1O[C@H](O[C@H]2[C@@H](O)[C@H](O[C@@H]3[C@@H](O)[C@H](N)C[C@H](N)[C@H]3O[C@H]3O[C@H](CN)[C@@H](O)[C@H](O)[C@H]3N)O[C@@H]2CO)[C@H](N)[C@@H](O)[C@@H]1O [Neomycin] | evoked rapid and transient increases in [Ca^2+ ]i | did not by itself cause an increase in [Ca^2+ ]i | evoked a rapid and transient increase in [Ca^2+ ]i | blocks transient, but does not block steady-state increases in [Ca^2+ ]i; also recorded: blocked transient, but not steady-state increases in [Ca^2+ ]i | mobilization of intracellular Ca^2+ | – | – | – | – | – | – | – | – |
| COc1cccc([C@@H](C)NCCCc2ccccc2Cl)c1 [NPS R-568, (R)-(+)-N-[3-(2-chlorophenyl)propyl]-α-methyl-3-methoxybenzylamine] | evokes increases in [Ca^2+ ]i in bovine parathyroid cells in a stereospecific manner | – | – | – | – | potent molecule active on Xenopus oocytes expressing the parathyroid cell calcium receptor | rapid, dose-dependent decrease in the plasma levels of PTH; also recorded: decreases in the levels of serum PTH | activated the oocyte-expressed receptor at about the same concentrations | shifted the concentration-response curve to the left | evoked increases in the Cl^- | abolished | shifts the concentration-response curve for extracellular Ca^2+; also recorded: shift to the left in the concentration-response curve for extracellular Ca^2+ | fails to evoke increases in [Ca^2+ ]i; also recorded: do not cause the mobilization of intracellular Ca^2+ |
| NCCCNCCCCNCCCNCCCNCCCNC(=O)Cc1c[nH]c2ccccc12 [NPS 019] | – | – | – | – | – | – | – | – | – | evoked increases in the Cl^- | persisted | – | – |
